Experimental data published in US8134015B2, “Compound inhibiting in vivo phosphorous transport and medicine containing the same” (Kyowa Hakko Kirin Co., Ltd., priority 2003, dated 2012).

Target: T1, rat NaPi-2b (Rattus norvegicus, UniProt Q9JJ09)
T1 construct: expressed in transfected cells; host or cells: Xenopus oocytes injected with cRNA
T1 sequence (Q9JJ09 1-695): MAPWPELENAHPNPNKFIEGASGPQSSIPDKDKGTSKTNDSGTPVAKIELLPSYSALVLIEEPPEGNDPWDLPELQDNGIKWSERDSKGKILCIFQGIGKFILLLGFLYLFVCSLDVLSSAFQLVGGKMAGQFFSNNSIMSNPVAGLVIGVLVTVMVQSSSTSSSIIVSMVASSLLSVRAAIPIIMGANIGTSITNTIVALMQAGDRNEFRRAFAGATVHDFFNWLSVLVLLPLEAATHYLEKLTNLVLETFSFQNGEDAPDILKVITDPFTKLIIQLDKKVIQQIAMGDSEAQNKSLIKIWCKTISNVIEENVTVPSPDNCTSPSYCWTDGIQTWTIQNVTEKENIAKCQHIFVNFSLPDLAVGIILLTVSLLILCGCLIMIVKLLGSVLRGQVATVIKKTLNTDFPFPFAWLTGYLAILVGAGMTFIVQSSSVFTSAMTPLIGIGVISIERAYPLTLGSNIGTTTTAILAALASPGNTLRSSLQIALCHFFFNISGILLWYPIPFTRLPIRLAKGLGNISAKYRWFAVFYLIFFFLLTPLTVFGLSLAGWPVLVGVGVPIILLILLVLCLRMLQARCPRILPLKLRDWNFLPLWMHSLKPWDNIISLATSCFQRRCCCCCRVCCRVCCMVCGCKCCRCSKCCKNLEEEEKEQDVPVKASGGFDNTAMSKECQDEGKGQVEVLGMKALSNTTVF
Test: Sodium-dependent phosphate uptake of Xenopus oocytes which expressed NaPi-2b (32P)
Type: cell-based
Settings: Xenopus oocytes expressing rat NaPi-2b, 32P radioactive phosphorus; read-out: IC50 (phosphate uptake inhibitory activity)
How it was run: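 Oocytes injected with rat NaPi-2b cRNA, cultured 2 d, then 32P uptake measured with compound. Values: % inhibition at 300 and 100 μM, both from one inhibition curve.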

Row | Structure (SMILES) | IC50 [µM]
1 | Cc1ccc(/C=N/NC(=O)c2scc(C)c2NC(=O)c2cccc(CN3CCC(N4CCCCC4)CC3)c2)cc1C [Compound 345, 3-[1,4′]Bipiperidinyl-1′-ylmethyl-N-[2-(3,4-dimethyl-benzylidene-hydrazinocarbonyl)-4-methyl-thiophen-3-yl]-benzamide] | 130
2 | CCN(CC)CCN(C)Cc1cccc(C(=O)Nc2ccc(I)cc2C(=O)N/N=C/c2cccc(F)c2)c1 [Compound 472, 3-{[(2-Diethylamino-ethyl)-methyl-amino]-methyl}-N-[2-(3-fluoro-benzylidene-hydrazinocarbonyl)-4-iodo-phenyl]-benzamide] | < 3
3 | CCSCCNCc1ccc(C(=O)Nc2ccc(Br)cc2C(=O)N/N=C/c2ccc(Cl)c(C(F)(F)F)c2)cc1 [Compound 769, N-[4-Bromo-2-(4-chloro-3-trifluoromethyl-benzylidene-hydrazinocarbonyl)-phenyl]-4-[(2-ethylsulfanyl-ethylamino)-methyl]-benzamide] | 4.44
4 | CCN(CCO)Cc1ccc(C(=O)Nc2ccc(Cl)cc2C(=O)N/N=C/c2cccc(O)c2)cc1 [Compound 440, N-[4-Chloro-2-(3-hydroxy-benzylidene-hydrazinocarbonyl)-phenyl]-4-{[ethyl-(2-hydroxy-ethyl)-amino]-methyl}-benzamide] | 32.4
5 | COc1ccc(/C=N/NC(=O)c2cc(Br)ccc2NC(=O)c2ccc(CN3CCN(CC(=O)N4CCOCC4)CC3)cc2)cc1 [Compound 307, N-[4-Bromo-2-(4-methoxy-benzylidene-hydrazinocarbonyl)-phenyl]-4-[4-(2-morpholin-4-yl-2-oxo-ethyl)-piperazin-1-ylmethyl]-benzamide] | 41.2
6 | O=C(Nc1sccc1C(=O)N/N=C/c1ccc(Cl)c(C(F)(F)F)c1)c1cccc(CSCCCO)c1 [Compound 662, N-[3-(4-Chloro-3-trifluoromethyl-benzylidene-hydrazinocarbonyl)-thiophen-2-yl]-3-(3-hydroxy-propylsulfanylmethyl)-benzamide] | 3.2
7 | Cc1cc(C(=O)Nc2ccccc2C(=O)N/N=C/c2ccc(F)cc2)c(C)o1 [Compound 515, 2,5-Dimethyl-furan-3-carboxylic acid [2-(4-fluoro-benzylidene-hydrazinocarbonyl)-phenyl]-amide] | 1.9
8 | Cc1ccc(/C=N/NC(=O)c2cc(Cl)ccc2NC(=O)c2ccncc2)cc1 [Compound 192, N-[4-Chloro-2-(4-methyl-benzylidene-hydrazinocarbonyl)-phenyl]-isonicotinamide] | 23.1
9 | Cc1ccc(/C=N/NC(=O)c2cscc2NC(=O)c2cccc(CN3CCN(CCO)CC3)c2)cc1 [Compound 981, 3-[4-(2-Hydroxy-ethyl)-piperazin-1-ylmethyl]-N-[4-(4-methyl-benzylidene-hydrazinocarbonyl)-thiophen-3-yl]-benzamide] | 12.2
10 | O=C(Nc1ccc(Br)cc1C(=O)N/N=C/c1ccc(Cl)c(C(F)(F)F)c1)c1ccco1 [Compound 156, Furan-2-carboxylic acid [4-bromo-2-(4-chloro-3-trifluoromethyl-benzylidene-hydrazinocarbonyl)-phenyl]-amide] | 0.46
11 | COc1ccc(NC(=O)c2cccc(CSCC(O)CO)c2)c(C(=O)N/N=C/c2cccc(F)c2)c1 (stereo not shown) [Compound 1017, 3-(2,3-Dihydroxy-propylsulfanylmethyl)-N-[2-(3-fluoro-benzylidene-hydrazinocarbonyl)-4-methoxy-phenyl]-benzamide] | 0.87
12 | Cc1ccc(/C=N/NC(=O)c2cc(Cl)ccc2NC(=O)c2cccc(CSc3nc[nH]n3)c2)cc1 [Compound 392, N-[4-Chloro-2-(4-methyl-benzylidene-hydrazinocarbonyl)-phenyl]-3-(1H-[1,2,4]triazol-3-ylsulfanylmethyl)-benzamide] | 1.42
13 | COc1ccc(C(=O)Nc2ccc(I)cc2C(=O)N/N=C/c2cccc(F)c2)cc1OC [Compound 204, N-[2-(3-Fluoro-benzylidene-hydrazinocarbonyl)-4-iodo-phenyl]-3,4-dimethoxy-benzamide] | < 3
14 | COc1cc(OC)cc(C(=O)Nc2ccccc2C(=O)N/N=C/c2ccc(OC)c(Br)c2)c1 [Compound 99, N-[2-(3-Bromo-4-methoxy-benzylidene-hydrazinocarbonyl)-phenyl]-3,5-dimethoxy-benzamide] | 3.03
15 | Cc1cccc(/C=N/NC(=O)c2cc(Cl)ccc2NC(=O)c2cccc(CN(C)CCO)c2)c1 [Compound 396, N-[4-Chloro-2-(3-methyl-benzylidene-hydrazinocarbonyl)-phenyl]-3-{[(2-hydroxy-ethyl)-methyl-amino]-methyl}-benzamide] | 8.19
16 | O=C(Nc1ccc(Cl)cc1C(=O)N/N=C/c1cccc(OCCO)c1)c1ccncc1 [Compound 351, N-{4-Chloro-2-[3-(2-hydroxy-ethoxy)-benzylidene-hydrazinocarbonyl]-phenyl}-isonicotinamide] | 8.96
17 | Cc1ccc(/C=N/NC(=O)c2c(C)csc2NC(=O)c2cccc(CN3CCC(N4CCCCC4)CC3)c2)cc1C [Compound 569, 3-[1,4′]Bipiperidinyl-1′-ylmethyl-N-[3-(3,4-dimethyl-benzylidene-hydrazinocarbonyl)-4-methyl-thiophen-2-yl]-benzamide] | < 3
18 | COc1ccc(C(=O)Nc2ccccc2C(=O)N/N=C/c2ccc(N(C)C)cc2)cc1OC [Compound 104, N-[2-(4-Dimethylamino-benzylidene-hydrazinocarbonyl)-phenyl]-3,4-dimethoxy-benzamide] | 11.3
19 | COc1cc(OC)cc(C(=O)Nc2ccc(Br)cc2C(=O)N/N=C/c2ccc(F)cc2)c1 [Compound 115, N-[4-Bromo-2-(4-fluoro-benzylidene-hydrazinocarbonyl)-phenyl]-3,5-dimethoxy-benzamide] | 5.48
20 | O=C(Nc1ccc(Br)cc1C(=O)N/N=C/c1cccc(F)c1)c1ccncc1 [Compound 166, N-[4-Bromo-2-(3-fluoro-benzylidene-hydrazinocarbonyl)-phenyl]-isonicotinamide] | 27.9
21 | CCN(CCO)Cc1cccc(C(=O)Nc2ccc(Cl)cc2C(=O)N/N=C/c2cccc(F)c2)c1 [Compound 422, N-[4-Chloro-2-(3-fluoro-benzylidene-hydrazinocarbonyl)-phenyl]-3-{[ethyl-(2-hydroxy-ethyl)-amino]-methyl}-benzamide] | 1.15

Same assay, conditions: phosphate uptake, oocytes expressing rat NaPi-2b; 300 μM, determined from inhibition curve

Row | Structure (SMILES) | inhibition at 300 µM [%]
22 | COc1ccc(/C=N/NC(=O)c2cc(Br)sc2NC(=O)c2cccc(CN(C)C)c2)cc1 [Compound 930, N-[5-Bromo-3-(4-methoxy-benzylidene-hydrazinocarbonyl)-thiophen-2-yl]-3-dimethylaminomethyl-benzamide] | 40.2
23 | COc1ccc(C(=O)Nc2ccc(Cl)cc2C(=O)N/N=C/c2ccccn2)cc1OC [Compound 244, N-[4-Chloro-2-(pyridin-2-ylmethylene-hydrazinocarbonyl)-phenyl]-3,4-dimethoxy-benzamide] | 30.7
24 | Cc1cccc(/C=N/NC(=O)c2ccccc2NC(=O)c2ccccc2F)c1 [Compound 238, 2-Fluoro-N-[2-(3-methyl-benzylidene-hydrazinocarbonyl)-phenyl]-benzamide] | 30.6
25 | O=C(Nc1ccc(Cl)cc1C(=O)N/N=C/c1ccc(F)cc1)c1cccc(CSCCS(=O)(=O)O)c1 [Compound 708, 2-{3-[4-Chloro-2-(4-fluoro-benzylidene-hydrazinocarbonyl)-phenylcarbamoyl]-benzylsulfanyl}-ethanesulfonic acid] | 42
